From patent US20220389008A1, “4-QUINOLINONE ANTIBACTERIAL COMPOUNDS” (Janssen Sciences Ireland Unlimited Company, priority 2019, published 2022)
Several values for one entry are separate records, joined by “and”; a condition that tells them apart may be missing. Identical values can stand only once. Like-named read-outs stand apart in the source and are kept apart here.

Columns and labels:
rNaCh = assay: CVS / cardio tox rNaCh; format: binding, rat; settings: read-out: Cardio tox rNaCH (IC50)
rCaCh = assay: CVS / cardio tox rCaCh; format: binding, rat
hERG = hERG (Homo sapiens, UniProt Q12809); assay: CVS / cardio tox hERG (DOF); format: binding; settings: DOF; read-out: Cardio tox hERG(DOF) (IC50)
[1] = system: Mitochondrial toxicity (Glu/Gal); assay: Mitochondrial toxicity (Glu/Gal) assay; format: cell-based; design: key to Score: “negative” means that in the test, it was found to have low mitotoxicity (and hence no mitotoxicity alerts); “positive” means that there were some mitotoxicity alerts; “inconclusive” means that no accurate conclusion could be drawn; settings: for Score: mitotoxicity score; for Δ IC50,glu/IC50,gal: ratio glu/gal
[2] = system: Mycobacterium tuberculosis (strain H37Ra), cyt bd; settings: Mtb H37Ra; for (i) % OCR after cyt bd inhibitor: test compound 10 μM added after Compound X 0.9 μM; for (ii) % OCR after cccp: test compound 10 μM after Compound X 0.9 μM, then CCCP 1 μM
[3] = system: Mycobacterium tuberculosis strain H37Rv ΔctaE-ΔqcrCAB; assay: microbe, parasite or virus in culture; format: cell-based; settings: 240 h
[4] = system: M. tuberculosis (strain H37Rv and H37Ra); assay: Time kill kinetics assay (Test 3); format: cell-based, Mycobacterium tuberculosis
Protocol: Time Kill Kinetics Assays: Test 3
Bactericidal or bacteriostatic activity of the compounds can be determined in a time kill kinetic assay using the broth dilution method. In this assay, the starting inoculum of M. tuberculosis (strain H37Rv and H37Ra) is 10^6 CFU/ml in Middlebrook (1×) 7H9 broth. The test compounds (cyt bd inhibitors) are tested in combination with a cyt bc inhibitor (for example Q203 or Compound X) at the concentration ranging from 10-30 μM to 0.9-0.3 μM respectively. Tubes receiving no antibacterial agent constitute the culture growth control. The tubes containing the microorganism and the test compounds are incubated at 37° C. After 0, 1, 4, 7, 14 and 21 days of incubation samples are removed for determination of viable counts by serial dilution (10^0 to 10^−6) in Middlebrook 7H9 medium and plating (100 μl) on Middlebrook 7H11 agar. The plates are incubated at 37° C. for 21 days and the number of colonies are determined. Killing curves can be constructed by plotting the log10 CFU per ml versus time. A bactericidal effect of a cytochrome be and cytochrome bd inhibitor (either alone or in combination) is commonly defined as 2-log10 decrease (decrease in CFU per ml) compared to Day 0. The potential carryover effect of the drugs is limited by using 0.4% charcoal in the agar plates, and by serial dilutions and counting the colonies at highest dilution possible used for plating.
Compounds of the examples are/were tested in Test 3 (the kill kinetics) described above, obtaining results expressed as a log reduction in CFUs per ml as compared to Day 0.

[5] = galactose medium, read-out: IC50, gal
[6] = glucose medium, read-out: IC50, glu
[7] = Q203 alone 0.168 μg/ml, Log Day 0 5.56
[8] = Compound X alone 0.17 μg/ml, Log Day 0 6.66

hERG, sequence (Q12809 whole entry): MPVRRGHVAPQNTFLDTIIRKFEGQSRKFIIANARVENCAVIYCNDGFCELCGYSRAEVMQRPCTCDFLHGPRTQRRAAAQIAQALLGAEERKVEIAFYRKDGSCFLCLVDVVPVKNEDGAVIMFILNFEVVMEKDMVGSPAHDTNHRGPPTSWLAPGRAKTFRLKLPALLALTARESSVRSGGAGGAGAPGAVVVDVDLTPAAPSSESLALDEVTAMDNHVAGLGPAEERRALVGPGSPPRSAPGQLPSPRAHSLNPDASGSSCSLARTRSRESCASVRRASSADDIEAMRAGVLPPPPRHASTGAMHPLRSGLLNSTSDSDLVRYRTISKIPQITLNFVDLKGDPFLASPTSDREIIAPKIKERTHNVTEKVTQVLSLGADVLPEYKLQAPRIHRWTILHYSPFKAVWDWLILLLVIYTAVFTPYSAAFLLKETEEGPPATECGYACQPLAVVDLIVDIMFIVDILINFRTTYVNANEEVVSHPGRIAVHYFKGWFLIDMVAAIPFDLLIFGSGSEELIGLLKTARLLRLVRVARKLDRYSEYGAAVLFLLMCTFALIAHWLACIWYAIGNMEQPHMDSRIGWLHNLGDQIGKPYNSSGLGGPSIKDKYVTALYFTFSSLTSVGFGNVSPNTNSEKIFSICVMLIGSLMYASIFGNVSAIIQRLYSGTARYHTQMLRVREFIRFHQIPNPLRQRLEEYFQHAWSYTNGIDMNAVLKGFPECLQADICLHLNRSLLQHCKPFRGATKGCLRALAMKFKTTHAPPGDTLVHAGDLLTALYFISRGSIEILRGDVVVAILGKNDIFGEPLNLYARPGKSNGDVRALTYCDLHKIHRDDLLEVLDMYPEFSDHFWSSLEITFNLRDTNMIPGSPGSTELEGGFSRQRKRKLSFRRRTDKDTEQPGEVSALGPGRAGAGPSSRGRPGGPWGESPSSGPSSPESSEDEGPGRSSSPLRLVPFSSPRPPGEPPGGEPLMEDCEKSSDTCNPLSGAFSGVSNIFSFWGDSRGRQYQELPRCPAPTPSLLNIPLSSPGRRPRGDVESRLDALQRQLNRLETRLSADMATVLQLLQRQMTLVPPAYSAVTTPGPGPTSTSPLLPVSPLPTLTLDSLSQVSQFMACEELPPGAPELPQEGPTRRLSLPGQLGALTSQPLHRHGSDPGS

| SMILES | IC50 (rNaCh) | Cardio tox rCaCh IC50 (µM) (rCaCh) | IC50 (hERG) | IC50 [1, 5] | IC50 [1, 6] | Score [1] | Δ IC50,glu/IC50,gal [1] | (i) % OCR after cyt bd inhibitor [2] | (ii) % OCR after cccp [2] | IC50 [3] | Log Day 21 [4, 7] | Log Day 21-Log Day 0 [4, 7] | Log Day 21 [4, 8] | Log Day 21-Log Day 0 [4, 8] |
| --- | --- | --- | --- | --- | --- | --- | --- | --- | --- | --- | --- | --- | --- | --- |
| Cc1c(-c2cc3ccc(-c4ccc(OC(F)(F)F)cc4)cn3n2)[nH]c2ccccc2c1=O [Compound 5] | > 10 µM | >10, >10, >10 | > 10 µM | 45.9 µM | 106 µM | inconclusive | [x]2.32 | 43.48% | 49.26% | 1.27 µM | – | – | – | – |
| Cc1c(-c2nc3ccc(-c4cccc(F)c4)cn3n2)[nH]c2ccccc2c1=O [Compound 12] | > 10 µM | > 10 | > 3.02 µM | 100 µM | 100 µM | negative | [x]0 | 62.09% | 79.37% | 0.885 µM | – | – | – | – |
| Cc1c(-c2nc3ccc(-c4nc(C(F)(F)F)cs4)cn3n2)[nH]c2ccccc2c1=O [Compound 18] | 1.51 µM | > 10 | > 10 µM | 15.8 µM | 23.4 µM | negative | [x]1.48 | 76.01% | 98.7% | 1.88 µM | – | – | – | – |
| Cc1c(-c2cc3ccc(-c4ccc(OC(F)(F)F)cc4)cn3c2)[nH]c2ccccc2c1=O [Compound 22] | 6.9 µM | > 10 | > 10 µM | 9.9 µM | 140 µM | positive | >13.3 | 82.7% | 109.8% | 3.75 µM | – | – | – | – |
| Cc1c(-c2cc3cc(-c4ccc(OC(F)(F)F)cc4)ccn3c2)[nH]c2ccccc2c1=O [Compound 25] | > 10 µM | >10, >10, >10 | > 10 µM | 9.9 µM | 200 µM | positive | >20.2 | 65.2% | 114.3% | 3.09 µM | – | – | – | – |
| Cc1c(-c2nc3ccc(-c4ccc(OC(F)(F)F)nc4)cn3n2)[nH]c2ccccc2c1=O [Compound 26] | > 10 µM | >10, >10, >10 | > 10 µM | 9.59 µM | 13.3 µM | negative | [x]1.39 | 71% | 116.7% | 7.69 µM | – | – | – | – |
| Cc1c(-c2nc3ccc(F)cn3n2)[nH]c2ccccc2c1=O [Compound 33] | > 10 µM | >10, >10, >10 | > 10 µM | 100 µM | 100 µM | negative | [x]0 | 61.2% | 123.6% | > 100 µM | – | – | – | – |
| Cc1c(-c2cn3cc(Oc4ccc(OC(F)(F)F)cc4)ccc3n2)[nH]c2ccccc2c1=O [Compound 44] | 1.2 µM | 3.8 | 1.5 µM | 58.5 µM | 47.8 µM | negative | 0.8 | 76% | 138.6% | 9.75 µM | – | – | – | – |
| Cc1c(-c2cn3ccc(Cc4ccc(OC(F)(F)F)cc4)cc3n2)[nH]c2ccccc2c1=O [Compound 52] | 7.4 µM | ~1.9 | > 10 µM | 108 µM | 134 µM | negative | 1.2 | 82.2% | 148.1% | > 100 µM | – | – | – | – |
| Cc1c(-c2nc3ccc(Br)cn3n2)[nH]c2ccccc2c1=O [Compound 55] | > 10 µM | >10, >10, >10 | > 10 µM | 200 µM and 100 µM | 200 µM and 100 µM | negative | [x]0;[x]0 | 109.2% | 148.3% | 36.1 µM | – | – | – | – |
| Cc1c(-c2nc3ccc(-c4cn(CC(F)(F)F)nn4)cn3n2)[nH]c2ccccc2c1=O [Compound 58] | > 10 µM | >10, >10, >10 | > 10 µM | 100 µM | 100 µM | negative | [x]0 | 139.74% | 153.33% | > 25 µM | – | – | – | – |
| Cc1c(-c2cn3cc(Cc4ccc(OC(F)(F)F)cc4)ccc3n2)[nH]c2ccccc2c1=O [Compound 63] | 2.8 µM | > 3.0 | > 10 µM | 96.8 µM | 200 µM | inconclusive | >1.7 | 85.8% | 157.9% | 76.2 µM | – | – | – | – |
| COc1cc2[nH]c(-c3nc4ccc(-c5ccc(OC(F)(F)F)cc5)cn4n3)c(C)c(=O)c2cc1OC [Compound 70] | > 10 µM | >10, >10, >10 | > 10 µM | 27.1 µM | 100 µM | inconclusive | [x]3.69 | 102.2% | 165.65% | > 50 µM | – | – | – | – |
| CCc1nc2ccc(Cl)cn2c1C(=O)NCc1ccc(N2CCC(c3ccc(OC(F)(F)F)cc3)CC2)cc1 [Compound Q203, 6-chloro-2-ethyl-N-(4-(4-(4-(trifluoromethoxy)phenyl)piperidin-1-yl)benzyl)imidazo[1,2-a]pyridine-3-carboxamide, reference compound] | – | – | – | – | – | – | – | – | – | – | 2.59 log CFUs per ml | −2.97 log CFUs per ml | – | – |
| CCc1nc2ccc(Cl)cn2c1C(=O)NCc1ccc(C2CC3(C2)CN(S(=O)(=O)C(F)(F)F)C3)cc1 [Compound X, 6-chloro-2-ethyl -N-({4-[2-(trifluoromethanesulfonyl)-2-azaspiro[3.3]heptan-6-yl]phenyl}methyl)imidazo[1,2-a]pyridine-3-carboxamide, reference compound] | – | – | – | – | – | – | – | – | – | – | – | – | 5.93 log CFUs per ml | −0.73 log CFUs per ml |
